Patent US8629143B2, “Potassium channel modulators” (AbbVie Inc., priority 2009, dated 2014)

Molecular target: T1, KCNQ 2/3 channels (HEK293 cells stably expressing human KCNQ2 and KCNQ3 subunits) (Homo sapiens, UniProt O43525+O43526)
T1 construct: expressed in transfected cells; host or cells: HEK293
Experiment: KCNQ2/3 channel activation, thallium flux FLIPR assay with BTC-AM dye
Format: cell-based
Settings: for Emax: HEK293, maximum response relative to the response produced by 10 μM retigabine (set at 100%), read-out: Max. %; for EC50: HEK293 cells expressing human KCNQ2 and KCNQ3, thallium flux, FLIPR
Outline: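 HEK293 cells stably expressing human KCNQ2/KCNQ3 were loaded with BTC-AM (3 μg/mL, 2 h, RT) and preincubated with compound for 4 min in pH 7.3 gluconate buffer containing 0.1 mM ouabain. Flux was triggered by 6 mM TlNO3/10 mM K2SO4 and read for 3 min; EC50 came from summed responses over basal, with maximum relative to 10 μM retigabine (100%).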

Compound	Emax [%]	EC50 [nM]
O=C(CC1(C(F)(F)F)CCCC1)Nn1nc(Cc2ccccc2)c2ccccc2c1=O [Example 139, N-(4-benzyl-1-oxophthalazin-2(1H)-yl)-2-[1-(trifluoromethyl)cyclopentyl]acetamide]	20	> 10000
COc1ccc(-c2nn(NC(=O)Cc3cc(F)cc(F)c3)c(=O)c3ccccc23)cc1 [Example 153, 2-(3,5-difluorophenyl)-N-[4-(4-methoxyphenyl)-1-oxophthalazin-2(1H)-yl]acetamide]	143	500 to 1000
Cc1ccc(-c2nn(NC(=O)Cc3ccc(Cl)cc3)c(=O)c3ccccc23)cc1C [Example 165, 2-(4-chlorophenyl)-N-[4-(3,4-dimethylphenyl)-1-oxophthalazin-2(1H)-yl]acetamide]	112	100 to 500
Cc1ccc(-c2nn(NC(=O)Cc3cc(F)cc(F)c3)c(=O)c3ccccc23)cc1C [Example 166, 2-(3,5-difluorophenyl)-N-[4-(3,4-dimethylphenyl)-1-oxophthalazin-2(1H)-yl]acetamide]	161	100 to 500
CC(C)c1ccc(-c2nn(NC(=O)CC34CC5CC(CC(C5)C3)C4)c(=O)c3ccccc23)cc1 [Example 169, 2-(adamantan-1-yl)-N-[4-(4-isopropylphenyl)-1-oxophthalazin-2(1H)-yl]acetamide]	139	100 to 500
CC(C)c1ccc(-c2nn(NC(=O)Cc3ccc(Cl)cc3)c(=O)c3ccccc23)cc1 [Example 170, 2-(4-chlorophenyl)-N-[4-(4-isopropylphenyl)-1-oxophthalazin-2(1H)-yl]acetamide]	104	500 to 1000
CC(C)c1ccc(-c2nn(NC(=O)Cc3cc(F)cc(F)c3)c(=O)c3ccccc23)cc1 [Example 171, 2-(3,5-difluorophenyl)-N-[4-(4-isopropylphenyl)-1-oxophthalazin-2(1H)-yl]acetamide]	134	500 to 1000
CC(C)c1nn(NC(=O)CC23CC4CC(CC(C4)C2)C3)c(=O)c2cc(C(F)(F)F)ccc12 [Example 173, 2-(adamantan-1-yl)-N-[4-isopropyl-1-oxo-7-(trifluoromethyl)phthalazin-2(1H)-yl]acetamide]	-12	> 10000
COc1ccc(-c2nn(NC(=O)CC34CC5CC(CC(C5)C3)C4)c(=O)c3cc(Br)ccc23)cc1 [Example 174, 2-(adamantan-1-yl)-N-[7-bromo-4-(4-methoxyphenyl)-1-oxophthalazin-2(1H)-yl]acetamide]	20	> 10000
COc1ccc(-c2nn(NC(=O)CC34CC5CC(CC(C5)C3)C4)c(=O)c3ccc(Br)cc23)cc1 [Example 175, 2-(adamantan-1-yl)-N-[6-bromo-4-(4-methoxyphenyl)-1-oxophthalazin-2(1H)-yl]acetamide]	13	> 10000
COc1ccc(-c2nn(NC(=O)Cc3cc(F)cc(F)c3)c(=O)c3ccc(Br)cc23)cc1 [Example 176, N-[6-bromo-4-(4-methoxyphenyl)-1-oxophthalazin-2(1H)-yl]-2-(3,5-difluorophenyl)acetamide]	33	100 to 500
COc1ccc(-c2nn(NC(=O)Cc3cc(F)cc(F)c3)c(=O)c3cc(Br)ccc23)cc1 [Example 177, N-[7-bromo-4-(4-methoxyphenyl)-1-oxophthalazin-2(1H)-yl]-2-(3,5-difluorophenyl)acetamide]	48	> 10000
O=C(CC12CC3CC(CC(Br)(C3)C1)C2)Nn1nc(-c2ccccc2)c2ccsc2c1=O [Example 178, 2-(3-bromoadamantan-1-yl)-N-(7-oxo-4-phenylthieno[2,3-d]pyridazin-6(7H)-yl)acetamide]	56	> 10000
O=C(CC12CC3CC(CC(F)(C3)C1)C2)Nn1nc(-c2ccccc2)c2ccsc2c1=O [Example 179, 2-(3-fluoroadamantan-1-yl)-N-(7-oxo-4-phenylthieno[2,3-d]pyridazin-6(7H)-yl)acetamide]	169	500 to 1000
O=C(CC12CC3CC(CC(O)(C3)C1)C2)Nn1nc(-c2ccccc2)c2ccsc2c1=O [Example 180, 2-(3-hydroxyadamantan-1-yl)-N-(7-oxo-4-phenylthieno[2,3-d]pyridazin-6(7H)-yl)acetamide]	-3	> 10000
O=C(Cc1cc(F)cc(F)c1)Nn1nc(-c2ccc(Cl)cc2)c2c(F)ccc(F)c2c1=O [Example 181, N-[4-(4-chlorophenyl)-5,8-difluoro-1-oxophthalazin-2(1H)-yl]-2-(3,5-difluorophenyl)acetamide]	166	100 to 500
O=C(Cc1ccc(Cl)cc1)Nn1nc(-c2ccc(Cl)cc2)c2c(F)ccc(F)c2c1=O [Example 182, 2-(4-chlorophenyl)-N-[4-(4-chlorophenyl)-5,8-difluoro-1-oxophthalazin-2(1H)-yl]acetamide]	122	100 to 500

More lines, now with the values ahead:

Emax [%]	EC50 [nM]	Compound
126	< 100	CC(C)(CC(=O)Nn1nc(Cc2ccccc2)c2ccccc2c1=O)c1ccccc1 [Example 140, N-(4-benzyl-1-oxophthalazin-2(1H)-yl)-3-methyl-3-phenylbutanamide]
109	< 100	O=C(Cc1ccc(Cl)cc1)Nn1nc(Cc2ccccc2)c2ccccc2c1=O [Example 142, N-(4-benzyl-1-oxophthalazin-2(1H)-yl)-2-(4-chlorophenyl)acetamide]
128	< 100	O=C(Cc1cc(F)cc(F)c1)Nn1nc(Cc2ccccc2)c2ccccc2c1=O [Example 143, N-(4-benzyl-1-oxophthalazin-2(1H)-yl)-2-(3,5-difluorophenyl)acetamide]
101	100 to 500	O=C(Cc1ccc(Cl)cc1)Nn1nc(Cc2ccc(Cl)cc2)c2ccccc2c1=O [Example 145, N-[4-(4-chlorobenzyl)-1-oxophthalazin-2(1H)-yl]-2-(4-chlorophenyl)acetamide]
83	100 to 500	O=C(Cc1cc(F)cc(F)c1)Nn1nc(Cc2ccc(Cl)cc2)c2ccccc2c1=O [Example 146, N-[4-(4-chlorobenzyl)-1-oxophthalazin-2(1H)-yl]-2-(3,5-difluorophenyl)acetamide]
154	100 to 500	O=C(C[C@@H]1C[C@@H]2CC[C@H]1C2)Nn1nc(-c2ccc(C(F)(F)F)cc2)c2ccccc2c1=O [Example 147, 2-[(1S,2S,4R)-bicyclo[2.2.1]hept-2-yl]-N-{1-oxo-4-[4-(trifluoromethyl)phenyl]phthalazin-2(1H)-yl}acetamide]
114	100 to 500	CC(C)(CC(=O)Nn1nc(-c2ccc(C(F)(F)F)cc2)c2ccccc2c1=O)c1ccccc1 [Example 148, 3-methyl-N-{1-oxo-4-[4-(trifluoromethyl)phenyl]phthalazin-2(1H)-yl}-3-phenylbutanamide]
133	< 100	O=C(CC12CC3CC(CC(C3)C1)C2)Nn1nc(-c2ccc(C(F)(F)F)cc2)c2ccccc2c1=O [Example 149, 2-(adamantan-1-yl)-N-{1-oxo-4-[4-(trifluoromethyl)phenyl]phthalazin-2(1H)-yl}acetamide]
114	100 to 500	COc1ccc(-c2nn(NC(=O)CC3CCC(C)CC3)c(=O)c3ccccc23)cc1 (centres unmarked) [Example 152, N-[4-(4-methoxyphenyl)-1-oxophthalazin-2(1H)-yl]-2-(4-methylcyclohexyl)acetamide]
136	< 100	COc1ccc(-c2nn(NC(=O)CC34CC5CC(CC(C5)C3)C4)c(=O)c3ccccc23)cc1 [Example 154, 2-(adamantan-1-yl)-N-[4-(4-methoxyphenyl)-1-oxophthalazin-2(1H)-yl]acetamide]
177	100 to 500	Cc1ccc(C)c(-c2nn(NC(=O)CC34CC5CC(CC(C5)C3)C4)c(=O)c3ccccc23)c1 [Example 156, 2-(adamantan-1-yl)-N-[4-(2,5-dimethylphenyl)-1-oxophthalazin-2(1H)-yl]acetamide]
155	100 to 500	Cc1ccc(C)c(-c2nn(NC(=O)Cc3ccc(Cl)cc3)c(=O)c3ccccc23)c1 [Example 157, 2-(4-chlorophenyl)-N-[4-(2,5-dimethylphenyl)-1-oxophthalazin-2(1H)-yl]acetamide]
167	100 to 500	Cc1ccc(C)c(-c2nn(NC(=O)Cc3cc(F)cc(F)c3)c(=O)c3ccccc23)c1 [Example 158, 2-(3,5-difluorophenyl)-N-[4-(2,5-dimethylphenyl)-1-oxophthalazin-2(1H)-yl]acetamide]
156	100 to 500	Cc1ccc(-c2nn(NC(=O)C[C@@H]3C[C@@H]4C=C[C@H]3C4)c(=O)c3ccccc23)c(C)c1 [Example 159, 2-[(1S,2S,4S)-bicyclo[2.2.1]hept-5-en-2-yl]-N-[4-(2,4-dimethylphenyl)-1-oxophthalazin-2(1H)-yl]acetamide]
145	100 to 500	Cc1ccc(-c2nn(NC(=O)Cc3ccc(Cl)cc3)c(=O)c3ccccc23)c(C)c1 [Example 161, 2-(4-chlorophenyl)-N-[4-(2,4-dimethylphenyl)-1-oxophthalazin-2(1H)-yl]acetamide]
164	100 to 500	Cc1ccc(-c2nn(NC(=O)Cc3cc(F)cc(F)c3)c(=O)c3ccccc23)c(C)c1 [Example 162, 2-(3,5-difluorophenyl)-N-[4-(2,4-dimethylphenyl)-1-oxophthalazin-2(1H)-yl]acetamide]
155	< 100	Cc1ccc(-c2nn(NC(=O)CC34CC5CC(CC(C5)C3)C4)c(=O)c3ccccc23)cc1C [Example 164, 2-(adamantan-1-yl)-N-[4-(3,4-dimethylphenyl)-1-oxophthalazin-2(1H)-yl]acetamide]
